# Data as given in ChEMBL document CHEMBL1201862, “PubChem BioAssay data set” (2004).
#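 Test compounds were applied to cells in 96-well plates for 48 hours at 5 doses. Here, GI50 denotes the concentration required for 50% inhibition of growth.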 Calls of active or inactive are those of the source. Cut-off read from the data, not from the text of the source: active = GI50 up to about 1.1 µM and inactive = higher.
# How the values were obtained:
# Assay in all cases: NCI anticancer screen, dose series, 48 h
# [1] = test system: NCI-H226
# [2] = test system: NCI-H522
# [3] = test system: Malme-3M
# [4] = test system: DLD-1
# [5] = test system: SK-MEL-28
# [6] = test system: DMS-114
# [7] = test system: U-251
# [8] = test system: K562
# [9] = test system: 786-0
# [10] = test system: NCI-H23
# [11] = test system: SK-MEL-5
# [12] = test system: RPMI-8226
# [13] = test system: SF-268
# [14] = test system: HT-29
# [15] = test system: HOP-18
# [16] = test system: KM12
# [17] = test system: EKVX
# [18] = test system: SK-OV-3
# [19] = test system: CCRF-CEM
# [20] = test system: NCI-H460
# [21] = test system: TK-10
# [22] = test system: RXF 393
# [23] = test system: M19-MEL
# [24] = test system: XF498
# [25] = test system: HOP-92
# [26] = test system: KM-20L2
# [27] = test system: UO-31
# [28] = test system: LXFL 529
# [29] = test system: SF-295
# [30] = test system: OVCAR-8
# [31] = test system: ACHN
# [32] = test system: DMS-273
# [33] = test system: M14
# [34] = test system: SNB-19
# [35] = test system: HCT-15
# [36] = test system: IGROV-1
# [37] = test system: RXF 631
# [38] = test system: SNB-75
# [39] = test system: OVCAR-4
# [40] = test system: HL-60
# [41] = test system: A549
# [42] = test system: COLO 205
# [43] = test system: SF-539
# [44] = test system: SK-MEL-2
# [45] = test system: CAKI-1
# [46] = test system: MOLT-4
# [47] = test system: UACC-257
# [48] = test system: OVCAR-3
# [49] = test system: SR
# [50] = test system: HOP-62
# [51] = test system: HCT-116
# [52] = test system: UACC-62
# [53] = test system: SN12C
# [54] = test system: SW-620
# [55] = test system: A498
# [56] = test system: HCC 2998
# [57] = test system: SNB-78
# [58] = test system: OVCAR-5
# [59] = test system: LOX IMVI
structure (smiles),measurement,setting,value
CC(C)C1=CC(=O)C(C)(C2=NC(C)(C)CO2)c2ccccc21 (configuration not stated),GI50,[1],51.5 µM (inactive)
same,GI50,[2],32.9 µM (inactive)
same,GI50,[3],> 100 µM (inactive)
same,GI50,[4],> 100 µM (inactive)
same,GI50,[5],> 100 µM (inactive)
same,GI50,[6],51.4 µM (inactive)
same,GI50,[7],> 100 µM (inactive)
same,GI50,[8],50.4 µM (inactive)
same,GI50,[9],> 100 µM (inactive)
same,GI50,[10],> 100 µM (inactive)
same,GI50,[11],> 100 µM (inactive)
same,GI50,[12],78.2 µM (inactive)
same,GI50,[13],> 100 µM (inactive)
same,GI50,[14],> 100 µM (inactive)
same,GI50,[15],34.6 µM (inactive)
same,GI50,[16],> 100 µM (inactive)
same,GI50,[17],96.6 µM (inactive)
same,GI50,[18],88.5 µM (inactive)
same,GI50,[19],> 100 µM (inactive)
same,GI50,[20],> 100 µM (inactive)
same,GI50,[21],> 100 µM (inactive)
same,GI50,[22],> 100 µM (inactive)
same,GI50,[23],> 100 µM (inactive)
same,GI50,[24],> 100 µM (inactive)
same,GI50,[25],> 100 µM (inactive)
same,GI50,[26],> 100 µM (inactive)
same,GI50,[27],61.2 µM (inactive)
same,GI50,[28],94.4 µM (inactive)
same,GI50,[29],> 100 µM (inactive)
same,GI50,[30],> 100 µM (inactive)
same,GI50,[31],> 100 µM (inactive)
same,GI50,[32],> 100 µM (inactive)
same,GI50,[33],> 100 µM (inactive)
same,GI50,[34],> 100 µM (inactive)
same,GI50,[35],> 100 µM
same,GI50,[36],> 100 µM (inactive)
same,GI50,[37],95.7 µM (inactive)
same,GI50,[38],96.4 µM (inactive)
same,GI50,[39],> 100 µM (inactive)
same,GI50,[40],> 100 µM (inactive)
same,GI50,[41],> 100 µM (inactive)
same,GI50,[42],> 100 µM (inactive)
same,GI50,[43],> 100 µM (inactive)
same,GI50,[44],> 100 µM (inactive)
same,GI50,[45],> 100 µM (inactive)
same,GI50,[46],67.3 µM (inactive)
same,GI50,[47],63.8 µM (inactive)
same,GI50,[48],> 100 µM (inactive)
same,GI50,[49],60.3 µM (inactive)
same,GI50,[50],> 100 µM (inactive)
same,GI50,[51],> 100 µM (inactive)
same,GI50,[52],> 100 µM (inactive)
same,GI50,[53],> 100 µM (inactive)
same,GI50,[54],> 100 µM (inactive)
C=CC/N=C1\N=C(C)C(C(=O)OCC)S1 (configuration not stated),GI50,[1],> 100 µM (inactive)
same,GI50,[2],> 100 µM (inactive)
same,GI50,[3],> 100 µM (inactive)
same,GI50,[4],> 100 µM (inactive)
same,GI50,[5],> 100 µM (inactive)
same,GI50,[6],> 100 µM (inactive)
same,GI50,[7],> 100 µM (inactive)
same,GI50,[55],> 100 µM (inactive)
same,GI50,[8],> 100 µM (inactive)
same,GI50,[9],> 100 µM (inactive)
same,GI50,[10],> 100 µM (inactive)
same,GI50,[11],> 100 µM (inactive)
same,GI50,[12],> 100 µM (inactive)
same,GI50,[13],> 100 µM (inactive)
same,GI50,[14],> 100 µM (inactive)
same,GI50,[15],> 100 µM (inactive)
same,GI50,[16],> 100 µM (inactive)
same,GI50,[17],> 100 µM (inactive)
same,GI50,[56],> 100 µM (inactive)
same,GI50,[18],> 100 µM (inactive)
same,GI50,[19],7.05 µM (inactive)
same,GI50,[20],> 100 µM (inactive)
same,GI50,[21],> 100 µM (inactive)
same,GI50,[22],> 100 µM (inactive)
same,GI50,[24],> 100 µM (inactive)
same,GI50,[25],> 100 µM (inactive)
same,GI50,[26],> 100 µM (inactive)
same,GI50,[27],> 100 µM (inactive)
same,GI50,[28],> 100 µM (inactive)
same,GI50,[57],> 100 µM (inactive)
same,GI50,[29],> 100 µM (inactive)
same,GI50,[30],> 100 µM (inactive)
same,GI50,[31],> 100 µM (inactive)
same,GI50,[32],> 100 µM (inactive)
same,GI50,[33],> 100 µM (inactive)
same,GI50,[34],> 100 µM (inactive)
same,GI50,[35],> 100 µM
same,GI50,[36],> 100 µM (inactive)
same,GI50,[37],> 100 µM (inactive)
same,GI50,[38],> 100 µM (inactive)
same,GI50,[39],> 100 µM (inactive)
same,GI50,[40],7.16 µM (inactive)
same,GI50,[41],> 100 µM (inactive)
same,GI50,[42],> 100 µM (inactive)
same,GI50,[58],> 100 µM (inactive)
same,GI50,[43],> 100 µM (inactive)
same,GI50,[44],> 100 µM (inactive)
same,GI50,[45],> 100 µM (inactive)
same,GI50,[46],> 100 µM (inactive)
same,GI50,[47],> 100 µM (inactive)
same,GI50,[48],> 100 µM (inactive)
same,GI50,[49],> 100 µM (inactive)
same,GI50,[50],> 100 µM (inactive)
same,GI50,[59],> 100 µM (inactive)
same,GI50,[51],> 100 µM (inactive)
same,GI50,[52],> 100 µM (inactive)
same,GI50,[53],> 100 µM (inactive)
same,GI50,[54],> 100 µM (inactive)
